Source: patent US20140228543A1, “MODIFIED AND DERIVATIZED ß-GLUCAN COMPOUNDS, COMPOSITIONS, AND METHODS” (Biothera, Inc., priority 2011, published 2014)

What was measured:
Type in all cases: cell-based
[1] = tested on: human neutrophils; experiment: iC3b deposition on neutrophils (flow cytometry); conditions: 200 μg/mL hexose concentration, 2 hr, 37° C., 10% serum
Description: This ability was evaluated by comparing the levels of iC3b complement fragment detected on human neutrophils with the derivative versus parent β-glucan-bound.
Enriched neutrophils were resuspended at 1×10^6 cells/mL in RPMI 1640 supplemented with 10% serum. The parent or the derivatized glucans at 200, μg/mL hexose concentration were added to neutrophils and incubated in a 37° C., 5% C02 humidified incubator for 2 hr. After incubation, cells were washed twice with FACS buffer (HBSS supplemented with 1% FBS and 0.1% sodium azide) to remove any unbound β-glucan, stained with a neo-epitope specific anti-iC3b Ab and PE-conjugated goat anti-mouse IgG and subsequently analyzed by flow cytometry.
Table 1 below lists the fold change of mean fluorescence intensity (MFI) values of iC3b staining on neutrophils treated with each of the parent or derivatized glucans over that of PBS control-treated cells.

[2] = tested on: human neutrophils; experiment: β-glucan binding on neutrophils (BfD IV staining, flow cytometry); conditions: 200 μg/mL hexose concentration, 2 hr, 37° C., 10% serum
Description: This ability was evaluated by comparing the levels of neutrophil-bound parent versus the derivatives of β-glucans detected by BfD IV, a monoclonal antibody (MAb) specific for β-1,3/1,6 glucans. […] Table 2 lists the fold change of MFI values of BfD IV staining on neutrophils treated with each of the parent and derivatized glucans over that of PBS control-treated cells.
Enriched neutrophils were resuspended at 1×10^6 cells/mL in RPMI 1640 supplemented with 10% serum. The parent or the derivatized glucans at 200, μg/mL hexose concentration were added to neutrophils and incubated in a 37° C., 5% CO2 humidified incubator for 2 hr. After incubation, cells were washed twice with FACS buffer (HBSS supplemented with 1% FBS and 0.1% sodium azide) to remove any unbound β-glucan, and subsequently treated with Fc block. Post Fc block step, cells were stained with the BfD IV Ab for 30 min at 4° C. and washed twice with cold FACS buffer. Cells were then incubated with FITC-conjugated F(ab′)2 goat anti-mouse IgM for 30 min at 4° C. and washed once with cold FACS buffer before fixing with 1% paraformaldehyde. Events were collected on a LSRII flow cytometer and analysis was performed using FlowJo software.
Table 2 summarizes the fold change of MFI values of BfD IV staining on neutrophils treated with each of the parent, or derivatized β-glucans, over that of PBS control-treated cells.

[3] = tested on: human peripheral blood mononuclear cells; experiment: Oxidative burst (superoxide production by cytochrome c reduction) on immobilized glucan; conditions: human PBMCs, FIG. 5
Description: Dilutions of MMW and BT-1222 were prepared out-of-plate in water. Subsequently, 50 μL of each dilution were added to triplicate wells of Costar® Universal-Bind™ microtiter plates. For immobilizing the glucans on the plate, the plate was irradiated for 5 min in a UV cross-linker, and then incubated at 50° C. until completely dried. After checking for complete dryness of the plate, it was cross-linked again under UV for 5 minutes. The microtiter plates were then blocked with 0.25% bovine serum albumin (BSA) in DPBS for 30 min at room temperature. Each microtiter plate included positive control wells and negative control wells to which only water with no polysaccharide was added at this point.
The oxidative burst response was then determined by standard methods by measuring SO production through the reduction of cytochrome c. Peripheral blood mononuclear cells (PBMCs) were resuspended in HBSS/HEPES buffer with 0.25% BSA at a concentration of 4×10^6 cells/mL and maintained at 37° C. until added to the plate. A 100 μL aliquot of 200 μM bovine cytochrome c solution in HBSS/HEPES buffer previously incubated at 37° C. was added to each well. Approximately 4.0×10^5 cells, in a 100 μL volume, were subsequently added to each well of the microtiter plate. The negative assay control consisting of cells and cytochrome c was added in the uncoated negative control wells. As a positive assay control, just before reading the plate, phorbol myristate acetate (PMA) at 100 ng/mL was added as the stimulus to the cells in the uncoated positive control wells to achieve a final concentration of 50 ng/mL. The plate was maintained at 37° C., and optical density (OD) in each well was read at 550 nm every 15 min for 120 min using a spectrophotometer. For each concentration of polysaccharide, the OD change (ΔOD) was calculated from the time of minimum response (1 min) to the time of maximum response (120 mins). The rate of SO production (nmoles of SO/10^6 cells/120 mins) was calculated from the ΔOD value and the extinction coefficient of cytochrome c (21.1×103 M-1 cm-1). […]

| Substance | Approximate Fold Increase/Decrease in MFI over Parent Compound (iC3b) [1] | MFI(ic3b) compound/MFI(ic3b) PBS [1] | Approximate Fold Increase/Decrease in MFI over Parent Compound (BfD IV) [2] | MFI(BID IV) compound/MFI(BID IV) PBS [2] | oxidative burst compared with parent scleroglucan and parent MMW yeast β-glucan [3] |
| --- | --- | --- | --- | --- | --- |
| 3-Aminopropyl Imidazole MMW Yeast Glucan Analog [BT-1304] | 0.6 fold | 1.2 | 0.5 fold | 2.1 | – |
| Benzyl Amine LMW Yeast Glucan Analog [BT-1273] | 2.2 fold | 2.4 | 11.3 fold | 17.0 | – |
| Benzyl Amine Laminarin Analog [BT-1234] | 3.9 fold | 5.1 | 70.0 fold | 77 | – |
| Benzyl Amine Reducing End MMW Yeast Glucan Analog [BT-1275] | 0.9 fold | 1.7 ± 0.1 | 0.6 fold | 2.4 ± 1.2 | – |
| Benzyl Amine Scleroglucan Analog [BT-1272] | 2.4 fold | 3.9 | 1.7 fold | 3.2 | – |
| De-Branched Scleroglucan Analog [BT-1322] | – | – | – | – | higher oxidative burst |
| Dextran [Dextran (control), reference compound] | – | 1.1 ± 0.2 | – | 1.0 | – |
| Galactose Propyl Amine Dextran Analog [BT-1286] | 0.9 fold | 1.0 | 1.0 fold | 1.0 | – |
| Galactose Propyl Amine LMW Yeast Glucan Analog [BT-1277] | 0.9 fold | 1.0 | 0.9 fold | 1.3 | – |
| Galactose Propyl Amine MMW Yeast Glucan Analog [BT-1245] | 2.3 fold | 4.5 ± 1.2 | 1.6 fold | 6.6 ± 3.78 | – |
| Lactose Propyl Amine MMW Yeast Glucan Analog [BT-1244] | 1.5 fold | 3.0 ± 0.1 | 1.0 fold | 4.0 ± 1.9 | – |
| Laminarin [Laminarin (parent), reference compound] | – | 1.3 | – | 1.1 | – |
| Maltose Propyl Amine MMW Yeast Glucan Analog [BT-1248] | 1.8 fold | 3.5 ± 0.4 | 1.1 fold | 4.7 ± 3.8 | – |
| Mannose Propyl Amine Dextran Analog [BT-1287] | 0.9 fold | 1.0 | 1.0 fold | 1.0 | – |
| Mannose Propyl Amine LMW Yeast Glucan Analog [BT-1278] | 0.9 fold | 1.0 | 0.9 fold | 1.3 | – |
| Mannose Propyl Amine Laminarin Analog [BT-1281] | 0.8 fold | 1.1 | 1.1 fold | 1.2 | – |
| Mannose Propyl Amine MMW Yeast Glucan Analog [BT-1243] | 4.3 fold | 8.6 ± 0.3 | 4.7 fold | 19.7 ± 13.4 | – |
| Mannose Propyl Amine Scleroglucan Analog [BT-1290] | 0.7 fold | 1.1 | 0.7 fold | 1.4 | – |
| Propyl Amine Dextran Analog [BT-1266] | 0.9 fold | 1.0 | 1.1 fold | 1.1 | – |
| Propyl Amine LMW Yeast Glucan Analog [BT-1276] | 1.1 fold | 1.2 ± 0.1 | 1.0 fold | 1.5 ± 0.1 | – |
| Propyl Amine MMW Yeast Glucan Analog [BT-1267] | 4.0 fold | 8.0 ± 3.9 | 5.6 fold | 23.6 ± 16.4 | – |
| S-(+)-2-Phenyl Glycinol MMW Yeast Glucan Analog [BT-1300] | 0.8 fold | 1.6 | 0.6 fold | 2.5 | – |
| Scleroglucan [Scleroglucan (parent), reference compound] | – | 1.6 | – | 1.9 | – |
| Tryptophan MMW Yeast Glucan Analog [BT-1220] | 5.1 fold | 10.1 | 4.8 fold | 20.3 | – |
| Tyrosine MMW Yeast Glucan Analog [BT-1297] | 1.2 fold | 2.3 | 0.5 fold | 2.2 | – |
